According to ChEMBL document CHEMBL1136188, “1H-Pyrazolo-[3,4-c]cyclophepta[1,2-c]thiophenes: a unique structural class of dopamine D4 selective ligands” (Bioorg Med Chem Lett, 2003):

Target: T1, 5-hydroxytryptamine receptor 1A (Homo sapiens, UniProt P08908)
T1 sequence (P08908 whole entry): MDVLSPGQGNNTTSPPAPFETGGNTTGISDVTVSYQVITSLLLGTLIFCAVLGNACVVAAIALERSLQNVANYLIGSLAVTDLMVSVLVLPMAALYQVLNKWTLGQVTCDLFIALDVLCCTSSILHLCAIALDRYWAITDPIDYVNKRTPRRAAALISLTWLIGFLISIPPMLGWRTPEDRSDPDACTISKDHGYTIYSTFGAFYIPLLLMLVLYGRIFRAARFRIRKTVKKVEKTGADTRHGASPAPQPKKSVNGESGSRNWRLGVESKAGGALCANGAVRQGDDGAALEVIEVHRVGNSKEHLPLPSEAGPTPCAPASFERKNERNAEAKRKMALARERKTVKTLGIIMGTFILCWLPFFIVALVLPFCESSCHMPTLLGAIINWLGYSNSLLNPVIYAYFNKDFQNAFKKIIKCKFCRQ
Assay: Binding affinity towards cloned human 5-hydroxytryptamine 1A receptor was determined
Details: not given

Ki	Compound
> 1000 nM	Cc1sc(C)c2c1CCCc1c[nH]nc1-2

Target: Serotonin 2 (5-HT2) receptor (Homo sapiens, UniProt P41595+P28223+P28335)
Assay: Binding affinity towards cloned human 5-hydroxytryptamine 2 receptor was determined
Type: protein assay
Details: not given

Ki	Compound
2087 nM	Cc1sc(C)c2c1CCCc1c[nH]nc1-2

Test system: not listed separately
Assay: Half life in human microsomes
Type: ADME, Microsome
Details: not given

half-life	Compound
6 min	Cc1sc(C)c2c1CCCc1c[nH]nc1-2
< 1 min	Cc1sc(C)c2c1SCc1cnn(C)c1-2

Test system: not listed separately
Assay: mLogP was determined
Type: physicochemical
Details: octanol/water; read-out: mLog P

logP	Compound
2.48	Cc1sc(C)c2c1CCCc1c[nH]nc1-2

Target: T2, Adrenergic receptor alpha-1 (Homo sapiens, UniProt P35348+P25100+P35368)
T2 sequence (P35348 whole entry): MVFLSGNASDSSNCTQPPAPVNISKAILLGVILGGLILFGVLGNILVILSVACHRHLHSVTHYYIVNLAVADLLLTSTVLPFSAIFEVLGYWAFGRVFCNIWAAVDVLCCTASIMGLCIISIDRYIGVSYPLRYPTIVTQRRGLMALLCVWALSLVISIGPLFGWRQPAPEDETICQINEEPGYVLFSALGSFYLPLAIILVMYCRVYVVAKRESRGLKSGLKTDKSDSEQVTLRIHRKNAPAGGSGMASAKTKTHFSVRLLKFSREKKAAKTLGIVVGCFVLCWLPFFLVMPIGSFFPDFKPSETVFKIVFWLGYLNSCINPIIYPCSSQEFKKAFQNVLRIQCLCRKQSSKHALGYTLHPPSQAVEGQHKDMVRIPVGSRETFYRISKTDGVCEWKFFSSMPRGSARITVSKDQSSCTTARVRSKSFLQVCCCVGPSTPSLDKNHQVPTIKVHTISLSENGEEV
T2 sequence (P25100 whole entry): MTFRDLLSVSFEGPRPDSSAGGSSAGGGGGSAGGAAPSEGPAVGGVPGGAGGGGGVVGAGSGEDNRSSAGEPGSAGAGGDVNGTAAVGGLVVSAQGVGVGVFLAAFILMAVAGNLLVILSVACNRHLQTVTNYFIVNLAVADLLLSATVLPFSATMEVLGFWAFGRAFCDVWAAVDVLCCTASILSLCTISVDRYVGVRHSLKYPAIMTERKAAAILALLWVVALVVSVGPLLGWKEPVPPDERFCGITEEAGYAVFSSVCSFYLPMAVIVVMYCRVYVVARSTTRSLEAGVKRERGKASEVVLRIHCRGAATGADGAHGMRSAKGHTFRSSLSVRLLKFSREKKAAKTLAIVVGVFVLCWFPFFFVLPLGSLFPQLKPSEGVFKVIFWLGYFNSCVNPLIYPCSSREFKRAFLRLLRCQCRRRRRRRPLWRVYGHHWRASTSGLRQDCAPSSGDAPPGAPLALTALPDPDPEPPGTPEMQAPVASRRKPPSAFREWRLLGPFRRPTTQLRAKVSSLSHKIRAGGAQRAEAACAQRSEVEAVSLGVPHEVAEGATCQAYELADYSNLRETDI
T2 sequence (P35368 whole entry): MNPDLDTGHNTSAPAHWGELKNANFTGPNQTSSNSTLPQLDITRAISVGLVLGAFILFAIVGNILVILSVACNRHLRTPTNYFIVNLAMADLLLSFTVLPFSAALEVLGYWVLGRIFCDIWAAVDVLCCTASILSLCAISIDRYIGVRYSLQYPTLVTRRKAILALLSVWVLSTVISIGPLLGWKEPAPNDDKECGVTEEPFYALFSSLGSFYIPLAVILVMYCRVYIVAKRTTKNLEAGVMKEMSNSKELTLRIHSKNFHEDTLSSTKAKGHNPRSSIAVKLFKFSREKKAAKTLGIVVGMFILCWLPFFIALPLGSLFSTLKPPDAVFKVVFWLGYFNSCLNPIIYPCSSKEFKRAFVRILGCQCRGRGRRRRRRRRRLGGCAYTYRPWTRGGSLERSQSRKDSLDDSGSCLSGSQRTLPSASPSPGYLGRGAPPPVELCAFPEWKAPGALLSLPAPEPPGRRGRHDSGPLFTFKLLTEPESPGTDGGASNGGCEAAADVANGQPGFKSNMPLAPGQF
Assay: Binding affinity towards cloned human Alpha-1 adrenergic receptor was determined
Type: protein assay
Details: not given

Ki	Compound
> 10000 nM	Cc1sc(C)c2c1CCCc1c[nH]nc1-2

Target: T3, Adrenergic receptor alpha-2 (Homo sapiens, UniProt P08913+P18825+P18089)
T3 sequence (P08913 whole entry): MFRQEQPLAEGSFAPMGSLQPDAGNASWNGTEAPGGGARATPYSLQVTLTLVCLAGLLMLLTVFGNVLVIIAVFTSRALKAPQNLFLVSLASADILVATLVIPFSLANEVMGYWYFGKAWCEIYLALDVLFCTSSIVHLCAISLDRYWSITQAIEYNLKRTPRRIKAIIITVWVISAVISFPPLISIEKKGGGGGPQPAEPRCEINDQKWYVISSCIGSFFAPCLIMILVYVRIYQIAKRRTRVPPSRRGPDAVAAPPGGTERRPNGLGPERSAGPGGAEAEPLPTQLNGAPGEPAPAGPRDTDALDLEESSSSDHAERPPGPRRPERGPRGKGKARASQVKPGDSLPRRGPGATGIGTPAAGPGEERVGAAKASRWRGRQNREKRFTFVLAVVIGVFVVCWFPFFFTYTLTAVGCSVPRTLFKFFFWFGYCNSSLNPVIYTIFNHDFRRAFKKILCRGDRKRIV
T3 sequence (P18825 whole entry): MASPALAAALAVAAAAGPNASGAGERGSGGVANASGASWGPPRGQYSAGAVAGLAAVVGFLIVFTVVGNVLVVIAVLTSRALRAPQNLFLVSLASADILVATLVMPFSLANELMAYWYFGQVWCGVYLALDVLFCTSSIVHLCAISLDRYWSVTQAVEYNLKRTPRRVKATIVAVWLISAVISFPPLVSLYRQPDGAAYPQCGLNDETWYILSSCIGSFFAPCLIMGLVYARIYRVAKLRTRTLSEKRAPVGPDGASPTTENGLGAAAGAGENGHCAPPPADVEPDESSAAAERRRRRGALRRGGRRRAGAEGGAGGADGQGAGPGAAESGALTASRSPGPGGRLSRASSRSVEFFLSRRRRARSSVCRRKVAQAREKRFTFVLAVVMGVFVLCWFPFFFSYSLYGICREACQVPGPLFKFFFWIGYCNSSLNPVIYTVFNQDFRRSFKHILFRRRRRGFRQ
T3 sequence (P18089 whole entry): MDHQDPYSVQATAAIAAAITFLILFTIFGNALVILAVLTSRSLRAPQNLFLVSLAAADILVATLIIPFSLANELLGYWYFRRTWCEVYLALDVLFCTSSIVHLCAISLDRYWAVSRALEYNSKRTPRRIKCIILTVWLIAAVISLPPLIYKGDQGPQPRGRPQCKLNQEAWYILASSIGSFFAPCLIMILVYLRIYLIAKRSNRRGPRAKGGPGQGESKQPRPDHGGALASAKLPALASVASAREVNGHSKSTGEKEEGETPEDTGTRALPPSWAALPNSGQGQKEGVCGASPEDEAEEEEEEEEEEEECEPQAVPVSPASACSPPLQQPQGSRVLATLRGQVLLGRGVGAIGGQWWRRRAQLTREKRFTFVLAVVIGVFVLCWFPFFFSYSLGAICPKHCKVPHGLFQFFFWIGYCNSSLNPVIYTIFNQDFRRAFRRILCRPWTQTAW
Assay: Binding affinity towards cloned human Alpha-2 adrenergic receptor was determined
Type: protein assay
Details: not given

Ki	Compound
> 7800 nM	Cc1sc(C)c2c1CCCc1c[nH]nc1-2

Target: D(2) dopamine receptor (Homo sapiens, UniProt P14416)
Sequence (P14416 whole entry): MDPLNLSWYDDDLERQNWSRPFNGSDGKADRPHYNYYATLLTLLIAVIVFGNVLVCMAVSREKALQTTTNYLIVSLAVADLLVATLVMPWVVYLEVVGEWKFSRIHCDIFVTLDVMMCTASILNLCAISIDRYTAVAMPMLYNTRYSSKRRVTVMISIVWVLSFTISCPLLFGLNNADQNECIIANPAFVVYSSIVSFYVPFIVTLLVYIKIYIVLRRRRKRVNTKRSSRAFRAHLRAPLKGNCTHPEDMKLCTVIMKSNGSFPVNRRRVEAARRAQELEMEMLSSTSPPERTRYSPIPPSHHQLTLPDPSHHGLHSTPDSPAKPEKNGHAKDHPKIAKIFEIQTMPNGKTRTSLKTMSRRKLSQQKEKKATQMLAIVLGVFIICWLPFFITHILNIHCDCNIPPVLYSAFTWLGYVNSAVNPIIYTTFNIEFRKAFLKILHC
Assay: Binding affinity towards cloned human Dopamine receptor D2 was determined
Details: not given

Ki	Compound
402 nM	CCn1ncc2c1-c1c(C)sc(C)c1CCC2
> 10000 nM	c1ccc2c(c1)CCCc1c[nH]nc1-2
641 nM	Cc1sc(C)c2c1CCCc1cn(C)nc1-2
> 10000 nM	CCCn1ncc2c1-c1c(Cl)sc(Cl)c1CCC2
416 nM	Cn1ncc2c1-c1c(Cl)sc(Cl)c1CCC2
> 10000 nM	Cn1cc2c(n1)-c1ccccc1CCC2
> 10000 nM	Cc1sc(C)c2c1CCCc1nccn1-2
> 10000 nM	Cc1ccc(C)c2c1CCCc1c[nH]nc1-2
> 10000 nM	Cc1sc(C)c2c1CCCc1cnn(-c3ccccc3)c1-2
> 10000 nM	Cc1sc(C)c2c1CCCc1nnc(C)n1-2
555 nM	Cc1sc(C)c2c1CCCc1cnn(C(C)C)c1-2
2070 nM	Cc1sc(C)c2c1CCCc1c[nH]nc1-2
> 10000 nM	Cc1sc(C)c2c1CCCc1ncn(C)c1-2
> 10000 nM	Cn1ncc2c1-c1ccccc1CCC2
111 nM	Cc1sc(C)c2c1SCc1cnn(C)c1-2

Target: T4, D(4) dopamine receptor (Homo sapiens, UniProt P21917)
T4 sequence (P21917 whole entry): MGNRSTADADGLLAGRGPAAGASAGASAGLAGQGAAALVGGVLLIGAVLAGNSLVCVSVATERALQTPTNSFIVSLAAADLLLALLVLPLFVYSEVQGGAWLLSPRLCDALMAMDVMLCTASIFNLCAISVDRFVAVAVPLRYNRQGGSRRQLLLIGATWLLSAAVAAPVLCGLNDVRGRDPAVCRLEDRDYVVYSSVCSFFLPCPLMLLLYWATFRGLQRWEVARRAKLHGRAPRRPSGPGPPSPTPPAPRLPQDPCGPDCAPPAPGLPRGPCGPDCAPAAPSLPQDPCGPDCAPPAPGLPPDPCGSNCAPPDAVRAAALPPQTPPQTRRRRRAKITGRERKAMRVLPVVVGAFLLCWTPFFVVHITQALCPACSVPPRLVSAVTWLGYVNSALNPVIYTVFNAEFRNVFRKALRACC
Assay: Binding affinity to recombinant human dopamine receptor D4
Details: not given

Ki	Compound
22 nM	CCn1ncc2c1-c1c(C)sc(C)c1CCC2
> 10000 nM	c1ccc2c(c1)CCCc1c[nH]nc1-2
228 nM	Cc1sc(C)c2c1CCCc1cn(C)nc1-2
3550 nM	CCCn1ncc2c1-c1c(Cl)sc(Cl)c1CCC2
14 nM	Cn1ncc2c1-c1c(Cl)sc(Cl)c1CCC2
507 nM	Cn1cc2c(n1)-c1ccccc1CCC2
301 nM	Cc1sc(C)c2c1CCCc1nccn1-2
425 nM	Cc1ccc(C)c2c1CCCc1c[nH]nc1-2
1580 nM	Cc1sc(C)c2c1CCCc1cnn(-c3ccccc3)c1-2
462 nM	Cc1sc(C)c2c1CCCc1nnc(C)n1-2
138 nM	Cc1sc(C)c2c1CCCc1cnn(C(C)C)c1-2
12 nM	Cc1sc(C)c2c1CCCc1c[nH]nc1-2
1290 nM	Cc1sc(C)c2c1CCCc1ncn(C)c1-2
> 10000 nM	Cn1ncc2c1-c1ccccc1CCC2
3 nM	Cc1sc(C)c2c1SCc1cnn(C)c1-2

Target: D(1A) dopamine receptor (Homo sapiens, UniProt P21728)
Sequence (P21728 whole entry): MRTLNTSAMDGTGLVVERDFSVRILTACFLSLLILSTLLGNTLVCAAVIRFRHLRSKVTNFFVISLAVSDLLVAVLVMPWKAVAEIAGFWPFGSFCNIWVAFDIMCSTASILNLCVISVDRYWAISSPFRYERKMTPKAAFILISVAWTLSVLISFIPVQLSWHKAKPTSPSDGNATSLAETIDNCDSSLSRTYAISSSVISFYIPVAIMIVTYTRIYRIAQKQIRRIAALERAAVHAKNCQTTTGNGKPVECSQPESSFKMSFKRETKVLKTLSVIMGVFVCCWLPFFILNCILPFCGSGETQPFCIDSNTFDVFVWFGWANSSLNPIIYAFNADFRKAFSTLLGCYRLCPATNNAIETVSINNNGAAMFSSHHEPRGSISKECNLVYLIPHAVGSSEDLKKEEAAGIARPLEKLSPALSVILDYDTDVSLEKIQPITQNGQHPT
Assay: Binding affinity towards Dopamine receptor D1 was determined
Details: not given

Ki	Compound
> 10000 nM	Cc1sc(C)c2c1CCCc1c[nH]nc1-2

Target: D(3) dopamine receptor (Homo sapiens, UniProt P35462)
Sequence (P35462 whole entry): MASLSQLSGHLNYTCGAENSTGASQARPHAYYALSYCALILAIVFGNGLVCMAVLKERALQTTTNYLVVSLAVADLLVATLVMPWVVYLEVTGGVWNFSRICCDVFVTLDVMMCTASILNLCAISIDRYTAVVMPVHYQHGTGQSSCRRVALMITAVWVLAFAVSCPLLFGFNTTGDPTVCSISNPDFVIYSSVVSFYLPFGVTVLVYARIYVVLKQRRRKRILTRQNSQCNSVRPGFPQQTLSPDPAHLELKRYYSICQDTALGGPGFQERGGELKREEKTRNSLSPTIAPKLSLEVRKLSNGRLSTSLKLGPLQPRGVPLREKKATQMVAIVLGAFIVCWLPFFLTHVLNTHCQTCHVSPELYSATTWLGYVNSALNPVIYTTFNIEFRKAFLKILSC
Assay: Binding affinity towards cloned human Dopamine receptor D3 was determined
Details: not given

Ki	Compound
> 10000 nM	Cc1sc(C)c2c1CCCc1c[nH]nc1-2

Target: T5, D(4) dopamine receptor (Homo sapiens) (UniProt P21917)
T5 sequence (whole entry): T4 sequence (P21917 whole entry)
Assay: Association constant towards cloned human dopamine D4 receptor was determined
Details: not given

pKa	Compound
3.06	Cc1sc(C)c2c1SCc1cnn(C)c1-2

Target: D(1B) dopamine receptor (Homo sapiens, UniProt P21918)
Sequence (P21918 whole entry): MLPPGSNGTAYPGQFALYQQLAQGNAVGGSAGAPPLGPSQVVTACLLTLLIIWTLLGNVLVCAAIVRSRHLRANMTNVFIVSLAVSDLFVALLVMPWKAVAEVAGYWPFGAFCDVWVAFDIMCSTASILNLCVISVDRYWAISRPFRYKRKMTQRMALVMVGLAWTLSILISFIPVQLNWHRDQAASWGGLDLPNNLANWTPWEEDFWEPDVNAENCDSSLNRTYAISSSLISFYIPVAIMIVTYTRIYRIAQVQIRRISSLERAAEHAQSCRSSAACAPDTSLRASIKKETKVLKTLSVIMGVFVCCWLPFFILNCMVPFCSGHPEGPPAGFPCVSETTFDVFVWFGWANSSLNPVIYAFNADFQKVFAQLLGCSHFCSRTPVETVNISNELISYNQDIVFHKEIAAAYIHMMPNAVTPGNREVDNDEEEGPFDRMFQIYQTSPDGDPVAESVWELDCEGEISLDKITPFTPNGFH
Assay: Binding affinity towards cloned human Dopamine receptor D5 was determined
Details: not given

Ki	Compound
> 10000 nM	Cc1sc(C)c2c1CCCc1c[nH]nc1-2

Target: T4, D(4) dopamine receptor
Assay: Antagonistic activity against human Dopamine receptor D4.2 using [35S]GTP-gamma-S binding assay
Details: not given

EC50	Compound
9 nM	Cc1sc(C)c2c1CCCc1c[nH]nc1-2
